According to patent publication US20240261310A1, “APPLICATION OF ALGINATE OLIGOSACCHARIDES” (HAITANG (JIANGSU) BIOTECHNOLOGY COMPANY, LTD., priority 2021, published 2024):

Tests used:
Type in all cases: in vivo
[1] = tested on: mice with AKI induced by endotoxin phosphorus lipopolysaccharides (LPS); assay: Mouse acute kidney injury induced by endotoxin phosphorus lipopolysaccharides (LPS); conditions: for level of serum creatinine: C57/B16 mice, LPS 15 mg/kg i.p., 24 h; for level of serum creatinine / gene expressions of inflammatory factors (IL-1β, IL-18, TNF-α, MCP-1) / mRNA levels of Kim-1 and NGAL in kidney tissues / protein expressions of renal inflammatory factors (TLR4, p-NFκB/NFκB, pro-IL-1β/IL-1β): 0.1 g/kg/day intragastric; for gene expressions of inflammatory factors (IL-1β, IL-18, TNF-α, MCP-1) / mRNA levels of Kim-1 and NGAL in kidney tissues / protein expressions of renal inflammatory factors (TLR4, p-NFκB/NFκB, pro-IL-1β/IL-1β): renal cortex, vs LPS group; for gene expressions of inflammatory factors (IL-1β, IL-18, TNF-α, MCP-1) / mRNA levels of Kim-1 and NGAL in kidney tissues: Qpcr; for protein expressions of renal inflammatory factors (TLR4, p-NFκB/NFκB, pro-IL-1β/IL-1β): western blotting
Source text: (§1) The kidney injury induced by treatment with endotoxin phosphorus lipopolysaccharides is a classical and standard animal model that simulates the acute kidney injury induced by clinical infection. With the mouse endotoxin phosphorus lipopolysaccharide model, we administered the alginate oligosaccharides with different uniform degrees of polymerization and a mixture thereof, and then compared with a blank group and a non-administrated model group to investigate the therapeutic effects of the individual alginate oligosaccharides with a uniform degree of polymerization.
24 male C57/B16 mice of 22-28 grams were selected. […] LPS was used for modeling to induce the occurrence of sepsis-associated acute kidney injury. During modeling, each model group was intraperitoneally injected with LPS at 15 mg/kg, and the control group was intraperitoneally injected with the same volume of normal saline. Immediately after modeling, the mice were put back into the mouse metabolic cages for observation, in which the weight, food intake, water intake and urine output of the mice were measured. The mice were sacrificed 24 hours later for sampling, and urine was collected. […] Then, the serum creatinine in the mice was determined by using the creatinine assay kit from Nanjing Jiancheng, with the results shown in FIG. 23. During sampling, the kidneys on both sides were isolated, the cortex and inner medulla of each kidney were isolated, and the cortex was stored in trizol. When in use, mRNAs in the cortex were extracted using the trizol method, and the mRNA expressions of AKI biomarkers (KIM-1 and NGAL, with the results shown in FIG. 24) and inflammatory factors (IL-1β, IL-18, TNF-α, and MCP-1, with the results shown in FIG. 25) were detected by the Qpcr method. A tissue lysis buffer was added to homogenize the kidneys by ultrasound, the total protein was then extracted, and the inflammatory factors (p-NFκB/NFκB, pro-IL-1β/IL-1β) in the renal cortex tissues were detected by western blotting. The experimental data were statistically analyzed by one-way ANOVA.
The same experimental method was used as that for the alginate disaccharides. The serum creatinine in the mice was determined by using the creatinine assay kit from Nanjing Jiancheng, with the results shown in FIG. 27. During sampling, the kidneys on both sides were isolated, the cortex and inner medulla of each kidney were isolated, and the cortex was stored in trizol. When in use, mRNAs in the cortex were extracted using the trizol method, and the mRNA expressions of AKI biomarkers (KIM-1 and NGAL, with the results shown in FIG. 28) and inflammatory factors (IL-1β, IL-18, TNF-α, and MCP-1, with the results shown in FIG. 29) were detected by the Qpcr method. A tissue lysis buffer was added to homogenize the kidneys by ultrasound, the total protein was then extracted, and the inflammatory factors (p-NFκB/NFκB, pro-IL-IP/IL-1β) in the renal cortex tissues were detected by western blotting. In addition, the animals were sacrificed after the last blood collection, the kidneys were fixed in 4% formaldehyde solution, and subjected to conventional paraffin embedding, sectioning, and HE staining to observe the general kidney tissue morphology under a light microscope. The experimental data were statistically analyzed by one-way ANOVA.
The same experimental method was used as that for the alginate disaccharides and alginate trisaccharides. […] The serum creatinine in the mice was determined by using the creatinine assay kit from Nanjing Jiancheng, with the results shown in FIG. 32. During sampling, the kidneys on both sides were isolated, the cortex and inner medulla of each kidney were isolated, and the cortex was stored in trizol.

[2] = tested on: mice with AKI induced by cisplatin; assay: Mouse acute kidney injury induced by cisplatin
Source text: as §1, with “Cisplatin-induced” for “The”, “injury” for “injury induced by treatment with endotoxin phosphorus lipopolysaccharides”, “drugs that cause nephrotoxicity.” for “clinical infection.”, “cisplatin” for “endotoxin phosphorus lipopolysaccharide”
30 male C57BL/J6 mice of 22-28 grams were selected. Before treatment, the 24-hour urine output was collected and measured without abnormalities. The mice to be modeled were randomly divided into the following groups: a control group, a model group, a model+low-dose administration group (AOS3 at 0.05 g/kg/day), a model+medium-dose administration group (AOS3 at 0.1 g/kg/day), and a model+high-dose administration group (AOS3 at 0.2 g/kg/day), with 6 mice in each group. The alginate trisaccharides was intragastrically administered, and the model group and the control group were all fed by gavage with the same volume of normal saline. Cisplatin was used to induce the drug toxin-associated acute kidney injury. During modeling, each model group was intraperitoneally injected with cisplatin at 20 mg/kg, and the control group was intraperitoneally injected with the same volume of normal saline. Immediately after modeling, the mice were put back into the mouse metabolic cages for observation, during which the weight, food intake, water intake and urine output of the mice were measured (see FIG. 37 for the results). The mice were sacrificed 72 hours later for sampling, and urine was collected. […] Then, the serum creatinine in the mice was determined by using the creatinine assay kit from Nanjing Jiancheng, with the results shown in FIG. 36. During sampling, the kidneys on both sides were isolated, the cortex and inner medulla of each kidney were isolated, and the cortex was stored in trizol. When in use, mRNAs in the cortex were extracted using the trizol method, and the mRNA expressions of AKI biomarkers (KIM-1 and NGAL, with the results shown in FIG. 38) were detected by the Qpcr method. A tissue lysis buffer was added to homogenize the kidneys by ultrasound, the total protein was then extracted, and the inflammatory factors (p-NFκB/NFκB and IL-1β) in the renal cortex tissues were detected by western blotting. The experimental data were statistically analyzed by one-way ANOVA.

[3] = tested on: rats with AKI induced by renal ischemia-reperfusion (I/R) injury; assay: Rat acute kidney injury (AKI) induced by ischemia-reperfusion (I/R); conditions: for 24-hour urine output / level of serum creatinine: Sprague Dawley rats, intragastric; for level of serum creatinine: 24 h after I/R; for mRNA levels of Kim-1 and NGAL in kidney tissues / inflammatory factors in kidney tissues (TLR4, p-NFκB/NFκB, pro-IL-1β/IL-1β): renal cortex; for mRNA levels of Kim-1 and NGAL in kidney tissues: 0.1 g/kg/day intragastric; for inflammatory factors in kidney tissues (TLR4, p-NFκB/NFκB, pro-IL-1β/IL-1β): western blotting, doses 0.01, 0.05, 0.1 g/kg/day, dose dependent
Source text: Ischemia-reperfusion induced kidney injury is a classical animal model that simulates the acute kidney injury caused by clinical hypoperfusion. With the rat ischemia-reperfusion model, the author of the invention administered the alginate oligosaccharides with a uniform degree of polymerization as prepared by Example 1-3 and a mixture thereof, and then carried out comparison with a blank group and a non-administrated model group to investigate the therapeutic effects of the several alginate oligosaccharides with a uniform degree of polymerization.
30 male Sprague Dawley rats (purchased from the Laboratory Animal Center of Sun Yat-sen University) of 220-250 grams were selected. Before treatment, the 24-hour urine output was collected and measured without abnormalities. The rats to be modeled were randomly divided into the following groups: a sham group, a model group, and three alginate disaccharide groups with the doses of 0.01 g/kg/day, 0.05 g/kg/day and 0.1 g/kg/day respectively (6 rats in each group). In the present invention, the alginate disaccharide is abbreviated as “AOS2”. Intragastric administration was adopted, and rats in the model group and the sham group were all fed by gavage with the same volume of normal saline. On the day of operation, the rats were anesthetized intraperitoneally with 3% pentobarbital sodium and subjected to routine skin disinfection. The abdomen was sectioned to expose the left and right kidneys. In the sham group, the kidneys were only examined, and then the incision was sutured layer by layer to end the operation. In the model group and the modeled administration group, large bulldog clamps were used for occlusion of the renal pedicles on both sides, then the kidneys were recovered in place, and the incision was covered with gauze and dropwise added with a small amount of normal saline for rehydration. After 45 minutes, the bulldog clamps on both sides were released, and the incision was sutured layer by layer to end the operation. After operation, the rats were placed on a heating pad at 37° C. to wait for resuscitation, and then placed back into metabolic cages, in which the weight, food intake, water intake and urine output of the rats were measured. The rats were routinely fed after operation and sacrificed 24 hours later for sampling. […] Then, the serum creatinine in the rats was determined by using the creatinine assay kit from Nanjing Jiancheng, with the results shown in FIG. 10. During sampling, the kidneys on both sides were isolated, the cortex and inner medulla of each kidney were isolated, and the cortex was stored in trizol. When in use, mRNAs in the cortex were extracted using the trizol method, and the mRNA expressions of AKI biomarkers (KIM-1 and NGAL) were detected. A tissue lysis buffer was added to homogenize the kidneys by ultrasound, the total protein was then extracted, and the inflammatory factors (p-NFκB/NFκB and pro-IL-1β/IL-1β) in the renal cortex tissues were detected by western blotting. The experimental data were statistically analyzed by one-way ANOVA.
With the same experimental method as that for the alginate disaccharides, the effect of alginate trisaccharides against the rat acute kidney injury induced by ischemia-reperfusion was investigated. In the present invention, the alginate trisaccharide is abbreviated as “AOS3”. The serum creatinine in the rats was determined by using the creatinine assay kit from Nanjing Jiancheng, with the results shown in FIG. 14. During sampling, the kidneys on both sides were isolated, the cortex and inner medulla of each kidney were isolated, and the cortex was stored in trizol. When in use, mRNAs in the cortex were extracted using the trizol method, and the mRNA expression of AKI biomarkers (KIM-1 and NGAL) was detected. […]

[4] = 0.1 g/kg/day, vs cisplatin model group
[5] = three doses 0.01, 0.05, 0.1 g/kg/day, vs I/R model group

Substance | level of serum creatinine [1] | gene expressions of inflammatory factors (IL-1β, IL-18, TNF-α, MCP-1) [1] | mRNA levels of Kim-1 and NGAL in kidney tissues [1] | protein expressions of renal inflammatory factors (TLR4, p-NFκB/NFκB, pro-IL-1β/IL-1β) [1] | expressions of inflammatory factors [2, 4] | level of serum creatinine [2, 4] | levels of kidney injury factors (KIM-1 and NGAL) [2, 4] | 24-hour urine output ([3]; 0.1 g/kg/day) | level of serum creatinine ([3]; 0.1 g/kg/day) | level of serum creatinine [3, 5] | 24-hour urine output [3, 5] | mRNA levels of Kim-1 and NGAL in kidney tissues ([3]; vs I/R model group) | inflammatory factors in kidney tissues (TLR4, p-NFκB/NFκB, pro-IL-1β/IL-1β) [3] | renal histopathological manifestations ([1]; HE staining, LPS+AOS3 group) | level of serum creatinine ([2]; C57BL/J6 mice, cisplatin 20 mg/kg i.p., intragastric 0.05, 0.1, 0.2 g/kg/day, 72 h) | mRNA levels of Kim-1 and NGAL in kidney tissues ([2]; renal cortex, Qpcr, vs cisplatin model group) | protein expressions of renal inflammatory factors (TLR4, p-NFκB/NFκB, IL-1β) ([2]; renal cortex, western blotting, vs cisplatin model group) | urine output ([2]; three doses 0.05, 0.1, 0.2 g/kg/day, 24 h to 72 h, dose dependent) | renal histopathological manifestations ([3]; HE staining, 0.1 g/kg/day)
alginate tetrasaccharide sodium salt [AOS4] | significantly reduced the serum creatinine | significantly reduced | significantly reduced | significantly inhibited the inflammatory responses of the kidneys | decreased significantly | decreased significantly | decreased significantly | obviously better than that of the mixed saccharides | restore to a normal level | decreased significantly | somewhat reduced | significantly reduce both markers | significantly reduce the production of inflammatory factors | – | – | – | – | – | –
alginate trisaccharide sodium salt [AOS3] | decreased significantly and could basically return to a normal level | significantly reduced the production of inflammatory factors | significantly reduced | significantly reduced the production of the inflammatory factors | decreased significantly | decreased significantly | decreased significantly | basically recovered to the normal level | basically return to a normal level | decreased significantly | somewhat decreased | significantly reduced the expressions of both markers | reduce the production of inflammatory factors | the glomeruli and renal tubules showed mild lesions | decreased significantly and could basically return to a normal level | significantly reduced | significantly reduced the production of the inflammatory factors | first somewhat decreased and then became normal | the renal tubules showed mild lesions
alginate disaccharide sodium salt [AOS2] | decreased significantly and could basically return to a normal level | significantly reduced the production of inflammatory factors | significantly reduced | significantly reduced the production of the inflammatory factors | decreased significantly | decreased significantly | decreased significantly | – | basically return to a normal level | decreased significantly | decreased somewhat | significantly reduced the expressions of both markers | reduced the production of inflammatory factors | – | – | – | – | – | –
